This note sets out measurements from ChEMBL document CHEMBL4017441, “Mitigating the inhibition of human bile salt export pump by drugs: opportunities provided by physicochemical property modulation, in silico modeling, and structural modification” (Drug Metab Dispos, 2012).

pIC50, pKi: −log10 of the molar value.

One assay deals with Bile salt export pump (Homo sapiens, UniProt O95342). In kind it is ADME.
As for `Cc1c(C)c2c(c(C)c1O)CCC(C)(COc1ccc(CC3SC(=O)NC3=O)cc1)O2` (stereo not drawn) [TROGLITAZONE], the pIC50 was 5.16.

On to `CCN(Cc1ccncc1)C(=O)C(CO)c1ccccc1` (stereo not drawn) [TROPICAMIDE], for which the pIC50 was 3.82. As for `CC(C)(C)NCC(O)c1ccccc1Cl` (stereo not drawn) [TULOBUTEROL], the pIC50 is below 3.00.

For `C[C@H](CCC(=O)O)[C@H]1CC[C@H]2[C@@H]3[C@@H](O)C[C@@H]4C[C@H](O)CC[C@]4(C)[C@H]3CC[C@]12C` [URSODIOL], the negative logarithm of the IC50 (pIC50) is above 5.00. Take `CCOC(=O)[C@H](CCc1ccccc1)N[C@@H](C)C(=O)N1N=C(C(C)(C)C)S[C@H]1C(=O)O` [UTIBAPRIL]: the pIC50 was above 4.87. As to `Clc1ccc(Nc2nnc(Cc3ccncc3)c3ccccc23)cc1` [VATALANIB], the pIC50 was above 5.00.

As for `COc1ccc(C(CN(C)C)C2(O)CCCCC2)cc1` (stereo not drawn) [VENLAFAXINE], the pIC50 is below 3.00. For the molecule `CC(=O)CC(c1ccccc1)c1c(O)c2ccccc2oc1=O` (stereo not drawn) [WARFARIN], the negative-log IC50 (pIC50) was 3.94.

For the molecule `FC(F)(F)c1cccc(C2=CCN(CCc3ccc4ccccc4c3)CC2)c1` [XALIPRODEN], the pIC50 is 3.93.

Take `Cc1cccc(C)c1N=C1NCCCS1` [XYLAZINE]: the pIC50 was below 3.00. The same measure, in the same setting: to `Cc1cc(C(C)(C)C)cc(C)c1CC1=NCCN1` [XYLOMETAZOLINE] belongs below 3.10; to `COC(=O)[C@@H]1[C@H]2C[C@H]3c4[nH]c5ccccc5c4CCN3C[C@@H]2CC[C@@H]1O` [YOHIMBINE], 3.60. For `C[C@](O)(C(=O)Nc1ccc(C(=O)c2ccccc2)cc1)C(F)(F)F` [ZD-6169], the pIC50 was 4.67. On to `CC(c1cc2ccccc2s1)N(O)C(N)=O` (stereo not drawn) [ZILEUTON], for which the pIC50 was below 3.12.

Take BISMUTH SUBSALICYLATE: the negative-log IC50 (pIC50) is below 3.00. In the case of IVERMECTIN, the negative-log IC50 (pIC50) is above 5.00. PHENYLMERCURIC ACETATE: the negative-log IC50 (pIC50) was above 5.00.

Another assay has as its target T1, Bile salt export pump (Rattus norvegicus, UniProt O70127).
T1 sequence (O70127 whole entry): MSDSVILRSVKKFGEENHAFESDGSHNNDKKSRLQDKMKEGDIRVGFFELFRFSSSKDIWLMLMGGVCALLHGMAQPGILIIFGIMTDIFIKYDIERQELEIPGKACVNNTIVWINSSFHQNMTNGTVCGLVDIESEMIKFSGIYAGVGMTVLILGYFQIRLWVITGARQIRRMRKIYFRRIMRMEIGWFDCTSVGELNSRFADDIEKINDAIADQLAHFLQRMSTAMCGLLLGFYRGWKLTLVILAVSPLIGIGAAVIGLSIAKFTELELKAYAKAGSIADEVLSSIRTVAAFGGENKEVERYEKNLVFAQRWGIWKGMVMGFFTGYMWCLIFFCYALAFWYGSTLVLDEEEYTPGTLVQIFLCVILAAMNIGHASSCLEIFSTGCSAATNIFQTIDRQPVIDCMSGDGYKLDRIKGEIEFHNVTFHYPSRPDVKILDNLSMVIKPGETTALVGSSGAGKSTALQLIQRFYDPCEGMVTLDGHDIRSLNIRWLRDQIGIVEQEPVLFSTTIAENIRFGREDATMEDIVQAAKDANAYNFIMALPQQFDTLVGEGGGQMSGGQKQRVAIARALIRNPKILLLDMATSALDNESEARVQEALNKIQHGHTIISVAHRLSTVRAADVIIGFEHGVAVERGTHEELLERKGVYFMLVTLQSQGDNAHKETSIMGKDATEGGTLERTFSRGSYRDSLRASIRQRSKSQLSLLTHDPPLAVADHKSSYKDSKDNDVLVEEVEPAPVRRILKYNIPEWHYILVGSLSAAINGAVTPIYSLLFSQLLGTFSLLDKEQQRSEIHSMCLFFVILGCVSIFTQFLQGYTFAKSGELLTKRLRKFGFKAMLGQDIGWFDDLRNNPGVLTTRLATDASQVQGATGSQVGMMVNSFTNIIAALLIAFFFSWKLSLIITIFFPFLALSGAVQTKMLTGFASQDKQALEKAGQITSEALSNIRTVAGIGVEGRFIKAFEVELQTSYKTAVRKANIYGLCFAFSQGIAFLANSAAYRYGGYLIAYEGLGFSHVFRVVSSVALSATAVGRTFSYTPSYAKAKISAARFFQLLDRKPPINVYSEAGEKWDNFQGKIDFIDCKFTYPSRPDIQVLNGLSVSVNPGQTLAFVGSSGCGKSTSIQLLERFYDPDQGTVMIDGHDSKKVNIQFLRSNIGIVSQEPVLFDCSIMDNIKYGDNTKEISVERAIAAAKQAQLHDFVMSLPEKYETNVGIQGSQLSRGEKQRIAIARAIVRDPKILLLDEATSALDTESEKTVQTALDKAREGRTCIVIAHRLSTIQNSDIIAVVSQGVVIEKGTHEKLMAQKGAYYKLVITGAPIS
The assay is described as follows: Inhibition of BSEP in Sprague-Dawley rat canalicular membrane vesicles assessed as reduction in ATP-dependent [3H]-taurocholate uptake. It counts as ADME.
Consider `COc1ccc(CCN(C)CCCC(C#N)(c2ccc(OC)c(OC)c2)C(C)C)cc1OC` (stereo not drawn), for which the pKi is 4.03.

One may read the pIC50 as −log10 of the IC50, conventionally taken in molar units. The pKi is the Ki on a negative log10 scale, so that one unit is a factor of ten.
